Experiment: Photodegradation over time under excitation with laser light at 532 nm
Type: physicochemical
Settings: after 350 minutes, FIG. 3
Protocol: The emission of nanoparticles is 15-folds higher than the emission of the solution. Moreover, the photodegradation of fluorescent nanoparticles over time was compared to the photodegradation of the cyanine in solution. […] It observed that the cyanine immobilized within the nanoparticle undergoes a 5% photodegradation after 350 minutes, whilst the cyanine dye in solution undergoes a 45% photodegradation within the same time.

photodegradation (percentage of emission compared to time zero): 45%
Compound: CO[Si](CCCN1/C(=C/C=C/C2=[N+](CCC[Si](OC)(OC)OC)c3ccc(S(=O)(=O)[O-])cc3C2(C)C)C(C)(C)c2cc(S(=O)(=O)[O-])ccc21)(OC)OC.[K+] [Compound 1, 1-propyltrimethoxysilane-1′-propyltrimethoxysilane-3,3,3,3′-tetramethyl-5,5′-disulfonate-indomonocarbocyanine potassium salt]
